Earlier results, collected in patent EP1707213A1, “Herbal composition for the treatment of cutaneous Erythema” (Kern, Elisabeth, priority 2005, dated 2006).
Like-named read-outs stand apart in the source and are kept apart here. Blank lines part the entries; values can stand above or below the compound they belong to.

Key:
[1] = system: Patienten
[2] = system: durch Doxil induziertes Hand-Fuß-Syndrom; conditions: patients with hand-foot syndrome of Grade 2 bis 4 under Doxil

palmoplantare Erythrodysästhesie als häufigste Nebenwirkung ([1]; in vivo): 50 % der Patienten
SMILES: CCCCCOC(=O)Nc1nc(=O)n([C@@H]2O[C@H](C)[C@@H](O)[C@H]2O)cc1F [Capecitabin, N4-Pentyloxycarbonyl-5'desoxy-Fluorocytidin]

SMILES: C[C@@H]1C[C@H]2[C@@H]3CCC4=CC(=O)C=C[C@]4(C)[C@@]3(F)[C@@H](O)C[C@]2(C)[C@@]1(O)C(=O)CO [Dexamethason]
Fortführung der Chemotherapie mit der ursprünglichen Dosierung von Doxil [2]: möglich

SMILES: O=c1[nH]cc(F)c(=O)[nH]1 [Zusammensetzung 5-FU, 5-Fluorouracil]
palmoplantare Erythrodysästhesie als häufigste Nebenwirkung ([1]; use as cytostatic): 50 % der Patienten
